# Results as given in PMC9688344, “[^225Ac]Ac-SibuDAB for Targeted Alpha Therapy of Prostate Cancer: Preclinical Evaluation and Comparison with [^225Ac]Ac-PSMA-617” (Cancers, 2022).
# System: immunocompetent FVB mice
# Assay: Tolerability study in immunocompetent mice
# Assay type: in vivo
# Excerpt: Five- to six-week-old immunocompetent, female FVB mice were purchased from Charles River Laboratories (Sulzfeld, Germany). After an acclimatization period of at least 7 days, the mice (n = 5 per group) were intravenously injected with 30 kBq [^225Ac]Ac-SibuDAB or 30 kBq [^225Ac]Ac-PSMA-617 and additional mice (n = 7 per group) remained untreated as controls. Mice were monitored by measuring their body mass and potential signs of pain or unease three times a week (Supplementary Material: Section S7). The mice were euthanized on Day 10, Day 28 or on Day 56, respectively, and variable parameters were assessed from blood and tissue samples.
# Hematological analysis was performed using blood samples taken by cardiac puncture immediately after euthanasia. Blood and bone marrow smears were prepared and stained using the Pappenheim protocol. The assessment was carried out by a board-certified veterinary anatomic pathologist (AnaPath Services GmbH, Liestal, Switzerland). Blood plasma parameters were determined in plasma after centrifugation of blood samples obtained shortly before euthanasia (Supplementary Material: Section S7).
# Tissue sections of formalin-fixed paraffin-embedded (FFPE) spleen, salivary glands and kidneys were prepared and stained with hematoxylin and eosin (H&E) by AnaPath Services GmbH (Liestal, Switzerland). The tissues were analyzed by a board certified veterinary pathologist using a pre-defined scoring system (Supplementary Material: Section S7). […]
# The percentage of radioligand bound to mouse or human plasma (A bound) was plotted against the molar ratios of MSA/HSA to radioligand and fitted with a nonlinear regression curve (specific binding with Hill slope, Bmax set to 100%) using GraphPad Prism software (version 8) to obtain the half maximum binding (B 50).
# Results: The results are reported in the main article.
# Purpose: A tolerability study with normal, immunocompetent FVB mice was con-ducted in order to assess potential side effects to the bone marrow, spleen, salivary glands and kidneys after the application of high activities of the 225Ac-labeled PSMA radioligands.
# Methods: Monitoring Body Mass and Signs of Unease: Mice were monitored by meas-uring their body mass (BM) three times a week. The body masses were expressed as the relative body mass, defined as [BMx/BM0], where BMx is the body mass in grams on a given Day x and BM0 is the body mass in grams on Day 0. Endpoint criteria, defined as (i) >15% loss in body mass, (ii) signs of unease and pain or a combination thereof based on a scoring system, were not reached in this stu dy.
# Hematology: Blood cell counts were determined in blood samples taken by cardiac puncture immediately after euthanasia and collected in EDTA tubes (Microvette® 100 K3 EDTA, Sarstedt, Germany). Leukocyte, lymphocyte, erythrocyte and thrombocyte counts as well as hemoglobin and hematocrit values were determined using a hematology ana-lyzer (VetScan HM5, Abaxis, United States). Blood smears were prepared on glass slides with cardiac blood. The bone marrow was collected from the femur, diluted in FCS/H2O (2:1 v/v) and smeared onto microscopy slides using a paintbrush. The slides were stained with a May Grünwald solution and subsequently with diluted Giemsa solution using the Pappenheim method and covered with coverslips using mounting medium (Pertex).
# The assessment of potential morphological ch anges of the blood cells and counting of the subgroups of leukocytes was performed by a board-certified veterinary pathologist (Ana-Path Services GmbH, Liestal, Switzerland).
# Histopathological Analysis: Spleen, salivary glands and kidneys were formalin-fixed and paraffin-embedded. Tissue sections were stained with hematoxylin & eosin (H&E) […]
# Blood Plasma Parameters: Blood plasma parameters were determined in plasma ob-tained from centrifuged retrobulbar blood samples collected in lithium-heparin tubes (Mi-crovette® 200 LH, SARSTEDT). The concentrations of blood urea nitrogen (BUN), alkaline […]
smiles,measurement,setting,value
CC(C)Cc1ccc(C(C)C(=O)NC(CCN)C(=O)NCCCCC(NC(=O)CN2CCN(CC(=O)[O-])CCN(CC(=O)[O-])CCN(CC(=O)[O-])CC2)C(=O)NCC2CCC(C(=O)NC(Cc3ccc4ccccc4c3)C(=O)NCCCCC(NC(=O)NC(CCC(=O)O)C(=O)O)C(=O)O)CC2)cc1.[225Ac+3] (stereo not shown) [[^225Ac]Ac-SibuDAB],Tolerability (body mass),"30 kBq per mouse, until Day 56",well tolerated
same,"Kidneys: Hyperplasia/hypertrophy, tubular, incidence","Day 10, 30 kBq",0
same,"Kidneys: Hyperplasia/hypertrophy, tubular, score average","Day 10, 30 kBq",0.0
same,"Kidneys: Hypertrophy/hyperplasia, tubular with ectasia, incidence","Day 10, 30 kBq",0
same,"Kidneys: Hypertrophy/hyperplasia, tubular with ectasia, score average","Day 10, 30 kBq",0.0
same,"Kidneys: Inflammatory cells, interstitium, incidence","Day 10, 30 kBq",0
same,"Kidneys: Inflammatory cells, interstitium, score average","Day 10, 30 kBq",0.0
same,"Kidneys: Inflammatory cells, pelvis, incidence","Day 10, 30 kBq",0
same,"Kidneys: Inflammatory cells, pelvis, score average","Day 10, 30 kBq",0.0
same,"Kidneys: Mineralization, papilla, incidence","Day 10, 30 kBq",0
same,"Kidneys: Mineralization, papilla, score average","Day 10, 30 kBq",0.0
same,"Kidneys: Tubular basophilia, incidence","Day 10, 30 kBq",0
same,"Kidneys: Tubular basophilia, score average","Day 10, 30 kBq",0.0
same,"Salivary glands: Ductal hyperplasia with inflammatory cells, incidence","Day 10, 30 kBq",0
same,"Salivary glands: Ductal hyperplasia with inflammatory cells, score average","Day 10, 30 kBq",0.0
same,"Salivary glands: Hypertrophy acinar, sublingual, incidence","Day 10, 30 kBq",0
same,"Salivary glands: Hypertrophy acinar, sublingual, score average","Day 10, 30 kBq",0.0
same,"Salivary glands: Mononuclear cell foci, incidence","Day 10, 30 kBq",1
same,"Salivary glands: Mononuclear cell foci, score average","Day 10, 30 kBq",1.0
same,"Salivary glands: Necrosis, multifocal, serous acinar cells, incidence","Day 10, 30 kBq",two out of five
same,"Salivary glands: Necrosis, multifocal, serous acinar cells, score average","Day 10, 30 kBq",1.0
same,"Salivary glands: Vacuolation, incidence","Day 10, 30 kBq",1
same,"Salivary glands: Vacuolation, score average","Day 10, 30 kBq",1.0
same,"Spleen: Extramedullary hematopoiesis, incidence","Day 10, 30 kBq",5
same,"Spleen: Extramedullary hematopoiesis, score average","Day 10, 30 kBq",1.2
same,"Spleen: Hyperplasia, lymphoid, incidence","Day 10, 30 kBq",1
same,"Spleen: Hyperplasia, lymphoid, score average","Day 10, 30 kBq",1.0
same,"Spleen: Pigment, incidence","Day 10, 30 kBq",5
same,"Spleen: Pigment, score average","Day 10, 30 kBq",1.0
same,mice with relative increase of neutrophilic blasts (metamyelocytes) in peripheral blood,"Day 10, 30 kBq",one out of five
same,myelopoiesis in bone marrow smears (group value),"Day 10, 30 kBq",66%
same,"Salivary glands: Necrosis, multifocal, serous acinar cells, incidence","Day 10, 30 kBq, listed as [225Ac]Ac-SibuDAB",2
same,Bone marrow % E,"Day 10, mouse M1",30%
same,Bone marrow % M,"Day 10, mouse M1",70%
same,"Bone marrow smear, Notes","Day 10, mouse M1","More blasts, neutrophilic row"
same,Bone marrow % E,"Day 10, mouse M2",50%
same,Bone marrow % M,"Day 10, mouse M2",50%
same,Bone marrow % E,"Day 10, mouse M3",40%
same,Bone marrow % M,"Day 10, mouse M3",60%
same,"Blood smear, Notes","Day 10, mouse M4",More neutrophilic blasts (Metamyelocyte)
same,Bone marrow % E,"Day 10, mouse M4",30%
same,Bone marrow % M,"Day 10, mouse M4",70%
same,"Bone marrow smear, Notes","Day 10, mouse M4","More blasts, neutrophilic row"
same,Bone marrow % E,"Day 10, mouse M5",20%
same,Bone marrow % M,"Day 10, mouse M5",80%
same,"Bone marrow smear, Notes","Day 10, mouse M5","More blasts, neutrophilic row"
same,Albumin concentration in blood plasma,"Day 28, 30 kBq",26 ± 1 g/L
same,Blood urea nitrogen,"Day 28, 30 kBq",9.1 ± 1.1 mmol/L
same,Erythrocyte counts,"Day 28, 30 kBq",8.7 ± 0.3 × 10^12/L
same,Hematocrit,"Day 28, 30 kBq",43 ± 1%
same,Hemoglobin,"Day 28, 30 kBq",11.2 ± 0.5 g/dL
same,"Kidneys: Hyperplasia/hypertrophy, tubular, incidence","Day 28, 30 kBq",0
same,"Kidneys: Hyperplasia/hypertrophy, tubular, score average","Day 28, 30 kBq",0.0
same,"Kidneys: Hypertrophy/hyperplasia, tubular with ectasia, incidence","Day 28, 30 kBq",0
same,"Kidneys: Hypertrophy/hyperplasia, tubular with ectasia, score average","Day 28, 30 kBq",0.0
same,"Kidneys: Inflammatory cells, interstitium, incidence","Day 28, 30 kBq",1
same,"Kidneys: Inflammatory cells, interstitium, score average","Day 28, 30 kBq",1.0
same,"Kidneys: Inflammatory cells, pelvis, incidence","Day 28, 30 kBq",2
same,"Kidneys: Inflammatory cells, pelvis, score average","Day 28, 30 kBq",1.0
same,"Kidneys: Mineralization, papilla, incidence","Day 28, 30 kBq",0
same,"Kidneys: Mineralization, papilla, score average","Day 28, 30 kBq",0.0
same,"Kidneys: Tubular basophilia, incidence","Day 28, 30 kBq",0
same,"Kidneys: Tubular basophilia, score average","Day 28, 30 kBq",0.0
same,"Salivary glands: Ductal hyperplasia with inflammatory cells, incidence","Day 28, 30 kBq",0
